# Results as given in US20170008921A1, “C-3 NOVEL TRITERPENONE WITH C-28 REVERSE AMIDE DERIVATIVES AS HIV INHIBITORS” (HETERO RESEARCH FOUNDATION, priority 2015, published 2017).
# Structures can show the parent of a compound that is named as a salt. Where two headings read alike, the source gives them in different places.
# Assay: Cyto-toxicity (MTT assay)
# Format: cell-based
# Procedure: On day 1 calculate the number of cells required for the assay and seed 3×10^4 cells in 200 μl per well. Weigh the compound and dissolve it in DMSO to get 10 mM stock which is further diluted to 3 mM and 1 mM. […] Add DMSO to controls in a way to obtain final concentration of solvent that is not greater than 1%. Incubate for 4 days in 5% CO2 incubator at 37° C. On day 4, 100 μl of medium was removed from each well without disturbing the cells. Add 10 μl of MTT reagent and incubate for 4 hours at 5% CO2 incubator at 37° C. for formation of crystals. Add 200 μl of 0.1N acidic isopropanol to dissolve the crystals and read the plate at 590 nm. The values are mentioned in below Table-3 and Table-3A.
Structure (SMILES),"viability at 4 days, 0.01 µM","viability at 4 days, 0.1 µM","viability at 4 days, 1 µM","viability at 4 days, 0.001 µM (0.001 μM, MTT, 4 days (Table 3A), read-out: Cytotoxicity % viability)","viability at 4 days, 0.003 µM (0.003 μM, MTT, 4 days (Table 3A), read-out: Cytotoxicity % viability)","viability at 4 days, 0.01 µM (0.01 μM, MTT, 4 days (Table 3A), read-out: Cytotoxicity % viability)"
"Cc1ccc(C(=O)NC2(C(=O)N[C@@]34CC[C@]5(C)[C@H](CC[C@@H]6[C@@]7(C)CC[C@H](OC(=O)[C@H]8C[C@@H](C(=O)O)C8(C)C)C(C)(C)[C@@H]7CC[C@]65C)C3=C(C(C)C)C(=O)C4)CCCCC2)cn1 [Example 49, (1R,3S)-3-((((3aR,5aR,5bR,7aR,9S,11aR,11bR,13aS)-1-isopropyl-5a,5b,8,8,11a-pentamethyl-3a-(1-(6-methylnicotinamido)cyclohexane-1-carboxamido)-2-oxo-3,3a,4,5,5a,5b,6,7,7a,8,9,10,11,11a,11b,12,13,13a-octadecahydro-2H-cyclopenta[a]chrysen-9-yl)oxy)carbonyl)-2,2-dimethylcyclobutane-1-carboxylic acid]",56%,12%,4%,,,
"CC(C)C1=C2[C@H]3CC[C@@H]4[C@@]5(C)CC[C@H](OC(=O)[C@H]6C[C@@H](C(=O)O)C6(C)C)C(C)(C)[C@@H]5CC[C@@]4(C)[C@]3(C)CC[C@@]2(NC(=O)C(C)(C)NC(=O)[C@@H]2CCCN2C(=O)OC(C)(C)C)CC1=O [Example 8, (1R,3S)-3-((((3aR,5aR,5bR,7aR,9S,11aR,11bR,13aS)-3a-(2-((S)-1-(tert-butoxycarbonyl)pyrrolidine-2-carboxamido)-2-methylpropanamido)-1-isopropyl-5a, 5b,8,8,11a-pentamethyl-2-oxo-3,3a,4,5,5a,5b,6,7,7a,8,9,10,11,11a,11b,12,13,13a-octadeca hydro-2H-cyclopenta[a]chrysen-9-yl)oxy)carbonyl)-2,2-dimethylcyclobutane-1-carboxylic acid]",28%,5%,3%,,,
"CC(C)C1=C2[C@H]3CC[C@@H]4[C@@]5(C)CC[C@H](OC(=O)[C@H]6C[C@@H](C(=O)O)C6(C)C)C(C)(C)[C@@H]5CC[C@@]4(C)[C@]3(C)CC[C@@]2(NC(=O)C(C)(C)NC(=O)OC(C)(C)C)CC1=O [Example 75, (1R,3S)-3-((((3aR,5aR,5bR,7aR,9S,11aR,11bR,13aS)-3a-(2-((tert-butoxycarbonyl)amino)-2-methylpropanamido)-1-isopropyl-5a,5b,8,8,11a-pentamethyl-2-oxo-3,3a,4,5,5a,5b,6,7,7a,8,9,10,11,11a,11b,12,13,13a-octadecahydro-2H-cyclopenta[a]chrysen-9-yl)oxy)carbonyl)-2,2-dimethylcyclobutane-1-carboxylic acid]",63%,17%,2%,,,
"CC(C)C1=C2[C@H]3CC[C@@H]4[C@@]5(C)CC[C@H](OC(=O)[C@H]6C[C@@H](C(=O)O)C6(C)C)C(C)(C)[C@@H]5CC[C@@]4(C)[C@]3(C)CC[C@@]2(NC(=O)C(C)(C)NC(=O)[C@H]2CCCNC2)CC1=O [Example 52, (1R,3S)-3-((((3aR,5aR,5bR,7aR,9S,11aR,11bR,13aS)-1-isopropyl-5a,5b,8,8,11a-pentamethyl-3a-(2-methyl-2-((S)-piperidine-3-carboxamido)propan amido)-2-oxo-3,3a,4,5,5a,5b,6,7,7a,8,9,10,11,11a,11b,12,13,13a-octadecahydro-2H-cyclopenta[a]chrysen-9-yl)oxy)carbonyl)-2,2-dimethylcyclobutane-1-carboxylic acid hydrochloride]",,,,83%,89%,59%
"CC(C)C1=C2[C@H]3CC[C@@H]4[C@@]5(C)CC[C@H](OC(=O)[C@H]6C[C@@H](C(=O)O)C6(C)C)C(C)(C)[C@@H]5CC[C@@]4(C)[C@]3(C)CC[C@@]2(NC(=O)C(C)(C)NC(=O)CN2CCS(=O)(=O)CC2)CC1=O [Example 34, (1R,3S)-3-((((3aR,5aR,5bR,7aR,9S,11aR,11bR,13aS)-3a-(2-(2-(1,1-dioxidothiomorpholino)acetamido)-2-methylpropanamido)-1-isopropyl-5a,5b,8,8,11a-pentamethyl-2-oxo-3,3a,4,5,5a,5b,6,7,7a,8,9,10,11,11a,11b,12,13,13a-octadecahydro-2H-cyclopenta[a]chrysen-9-yl)oxy)carbonyl)-2,2-dimethylcyclobutane-1-carboxylic acid]",26%,10%,1%,,,
"CC(C)C1=C2[C@H]3CC[C@@H]4[C@@]5(C)CC[C@H](OC(=O)[C@H]6C[C@@H](C(=O)O)C6(C)C)C(C)(C)[C@@H]5CC[C@@]4(C)[C@]3(C)CC[C@@]2(NC(=O)C(C)(C)NC(=O)C2(c3ccccc3)CCCC2)CC1=O [Example 27, (1R,3S)-3-((((3aR,5aR,5bR,7aR,9S,11aR,11bR,13aS)-1-isopropyl-5a,5b,8,8,11a-pentamethyl-3a-(2-methyl-2-(1-phenylcyclopentane-1-carboxamido)propanamido)-2-oxo-3,3a,4,5,5a,5b,6,7,7a,8,9,10,11,11a,11b,12,13,13a-octadecahydro-2H-cyclopenta[a]chrysen-9-yl)oxy)carbonyl)-2,2-dimethylcyclobutane-1-carboxylic acid]",52%,2%,0%,,,
"CC(C)C1=C2[C@H]3CC[C@@H]4[C@@]5(C)CC[C@H](OC(=O)[C@H]6C[C@@H](C(=O)O)C6(C)C)C(C)(C)[C@@H]5CC[C@@]4(C)[C@]3(C)CC[C@@]2(NC(=O)C(C)(C)NC(=O)c2nccn2C)CC1=O [Example 16, (1R,3S)-3-((((3aR,5aR,5bR,7aR,9S,11aR,11bR,13aS)-1-isopropyl-5a,5b,8,8,11a-pentamethyl-3a-(2-methyl-2-(1-methyl-1H-imidazole-2-carboxamido)propanamido)-2-oxo-3,3a,4,5,5a,5b,6,7,7a,8,9,10,11,11a,11b,12,13,13a-octadecahydro-2H-cyclopenta[a]chrysen-9-yl)oxy)carbonyl)-2,2-dimethylcyclobutane-1-carboxylic acid]",37%,11%,2%,,,
